Values joined by “and” are separate entries in the source; they are usually repeats but may differ in a detail not shown here. Equal values may be shown once.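 1) Cells in 96-well plates. 2) Compound, 48 h, 5 concentrations. 3) Linear interpolation between surrounding doses. 4) Unreached endpoint = highest concentration. GI50 = concentration required for 50% inhibition of growth. TGI: total growth inhibition.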
Legend:
Experiment in all cases: inhibition of tumour cell growth, NCI panel, 48 h
A498 renal = system: A498 renal
A549 NSCLC = system: A549 NSCLC
IGROV1 ovarian = system: IGROV1 ovarian
MCF7 breast = system: MCF7 breast
MOLT-4 leukemia = system: MOLT-4 leukemia
NCI-H226 lung = system: NCI-H226 lung
NCI-H23 lung = system: NCI-H23 lung
NCI/ADR-RES ovarian = system: NCI/ADR-RES ovarian
RXF 393 renal = system: RXF 393 renal
DU-145 prostate = system: DU-145 prostate

| Compound | TGI (A498 renal) | TGI (A549 NSCLC) | TGI (IGROV1 ovarian) | TGI (MCF7 breast) | TGI (MOLT-4 leukemia) | TGI (NCI-H226 lung) | TGI (NCI-H23 lung) | TGI (NCI/ADR-RES ovarian) | TGI (RXF 393 renal) | GI50 (A549 NSCLC) | GI50 (DU-145 prostate) | TGI (DU-145 prostate) | GI50 (IGROV1 ovarian) | GI50 (MCF7 breast) | GI50 (MOLT-4 leukemia) | GI50 (NCI-H23 lung) | GI50 (NCI/ADR-RES ovarian) | GI50 (A498 renal) | GI50 (RXF 393 renal) | GI50 (NCI-H226 lung) |
| --- | --- | --- | --- | --- | --- | --- | --- | --- | --- | --- | --- | --- | --- | --- | --- | --- | --- | --- | --- | --- |
| Cn1sc2ccccc2c1=S | 99 µM | 28.8 µM | 31.7 µM | 7.36 µM | 14.1 µM | 53.4 µM | 34.7 µM | 9.38 µM | 7.95 µM | – | – | – | – | – | – | – | – | – | – | – |
| Nc1ncnc2c1ncn2C1OC(COC2C(CO)OC(OC(C(=O)O)C(O)C(OP(=O)(O)O)C(O)C(=O)O)C(O)C2O)C(O)C1O (centres undefined) | > 100 µM | > 100 µM | > 100 µM | > 100 µM | > 100 µM | > 100 µM | > 100 µM | – | – | – | – | – | – | – | – | – | – | – | – | – |
| c1ccc2c3c(ccc2c1)-c1c(ccc2c(NCCCCN4CCCCC4)cccc12)C3 | – | 2.79 µM | 8.03 µM | 30.3 µM | > 100 µM | – | 3.16 µM | 2.96 µM | – | 1.47 µM | 1.77 µM | 3.33 µM | 2.09 µM | 10.8 µM | 2.09 µM | 1.7 µM | 1.61 µM | – | – | – |
| O=C(O)c1ccccc1Nc1ccc2nnc(-c3ccncc3)n2n1 | 29.5 µM | 62 µM | 22.9 µM | 24.6 µM | > 100 µM | – | 54.2 µM | 77.4 µM | 9.98 µM | 13.3 µM | 11.5 µM | 25.6 µM | 5.29 µM | 2.85 µM | 6.99 µM | 14.1 µM | 18.8 µM | 15.5 µM | 3.18 µM | – |
| CCCCCCNCCCNc1c2ccccc2nc2cccc([N+](=O)[O-])c12 | 0.321 µM and 0.327 µM | 0.113 µM and 0.131 µM | 0.0713 µM and 0.186 µM | 0.112 µM and 0.103 µM | 0.0854 µM and 0.0641 µM | 0.274 µM and 0.148 µM | 0.0253 µM and 0.0599 µM | 1.66 µM and 2.8 µM | 0.0312 µM | – | – | – | 0.0252 µM | – | – | 0.0159 µM | 0.54 µM | 0.0931 µM | – | 0.0228 µM |
| COc1cc(/C=C2\C[C@H]3[C@@H]4CC=C5C[C@@H](OC(C)=O)CC[C@]5(C)[C@H]4CC[C@]3(C)[C@H]2OC(C)=O)ccc1OCCN1CCCCC1 | – | > 50 µM | > 50 µM | 25 µM | > 50 µM | > 50 µM | > 50 µM | > 50 µM | 18.8 µM | 19.3 µM | 15.2 µM | 44.4 µM | 40 µM | 10.6 µM | > 50 µM | > 50 µM | > 50 µM | – | 6.94 µM | > 50 µM |
| CSC1(CC(=O)N2CCCCC2)C(=O)Nc2ccccc21 (centres undefined) | > 100 µM | > 100 µM | > 100 µM | > 100 µM | > 100 µM | > 100 µM | > 100 µM | > 100 µM | – | – | – | > 100 µM | – | – | – | – | – | – | – | – |
| C/C(=C\c1ccn(-c2ccc(N)cc2F)n1)[C@@H]1C[C@@H]2O[C@]2(C)CCC[C@H](C)[C@H](O)[C@@H](C)C(=O)C(C)(C)[C@@H](O)CC(=O)O1 | – | > 50 µM | > 50 µM | > 50 µM | > 21.8 µM | > 50 µM | > 50 µM | 1.19 µM | 0.404 µM | 0.0355 µM | 0.024 µM | 0.285 µM | 0.0448 µM | < 0.0119 µM | 0.0286 µM | 0.033 µM | 0.0921 µM | – | 0.0286 µM | 5.45 µM |
| Cc1c(-c2nnc(-c3cc(Cl)c(Cl)cc3Cl)o2)nnn1-c1ccnc2c(C(F)(F)F)cccc12 | 76.3 µM | 42.9 µM | 71.7 µM | 45.1 µM | > 100 µM | 91.7 µM | 81.1 µM | 57.1 µM | – | 17.8 µM | 19.5 µM | 41.6 µM | 27.1 µM | 20.3 µM | 36.9 µM | 26.5 µM | 22.7 µM | 30.3 µM | – | 28.7 µM |
| C/C=C/C1=CN2C(=O)c3cc(OC4OC(C)C(NC)C(C)(O)C4O)c(C)c(O)c3N=C[C@@H]2C1 (some centres undefined) | 0.0887 µM and < 0.01 µM | 24.8 µM | – | 13.4 µM | – | – | – | 4.71 µM | – | – | 0.0617 µM and < 0.01 µM | 10.7 µM | – | – | 0.0413 µM and < 0.01 µM | 0.0784 µM and < 0.01 µM | – | 0.0282 µM and < 0.01 µM | – | 0.124 µM |
| CC1=Nc2ccccc2C12C(c1ccccc1)C(c1ccccc1)C(=O)N1c3ccccc3CC12 (centres undefined) | > 100 µM | > 100 µM | > 100 µM | – | > 100 µM | > 100 µM | > 100 µM | – | > 100 µM | – | – | – | – | – | – | – | – | – | – | – |
| O=c1ccnc(SCc2ccc(Cl)cc2)[nH]1 | > 100 µM | > 100 µM | > 100 µM | > 100 µM | > 100 µM | – | > 100 µM | > 100 µM | > 100 µM | – | – | > 100 µM | – | – | – | – | – | – | – | – |
| FC(F)(F)c1nc(-c2ccccc2)oc1Sc1oc(-c2ccccc2)nc1C(F)(F)F | > 100 µM | > 100 µM | > 100 µM | – | > 100 µM | > 100 µM | > 100 µM | – | > 100 µM | – | – | – | – | – | – | – | – | – | – | – |
| Cc1ccc(NC(=O)c2cc3ccccc3cc2O)c(C)c1.Cc1ccc(NC(=O)c2cc3ccccc3cc2[O-])c(C)c1.[Ni+2] | 13.4 µM | 15.6 µM | – | – | – | 8.37 µM | 10.1 µM | 8.6 µM | 6.37 µM | 3.44 µM | 3.27 µM | 13.2 µM | – | 3.45 µM | – | 2.48 µM | 2.45 µM | 3.44 µM | 1.9 µM | 3.49 µM |
| COc1ccc(C2CC(=O)c3c(O)c(OC)c(OC)c(OC)c3O2)cc1O (centres undefined) | 33.2 µM | > 100 µM | > 100 µM | > 100 µM | > 100 µM | > 100 µM | > 100 µM | > 100 µM | – | 0.817 µM | 0.225 µM | > 100 µM | 0.976 µM | 0.124 µM | 0.105 µM | 0.547 µM | 0.0616 µM | 2.34 µM | – | 14.1 µM |
| CC(CN)[C@@H]1CC[C@]2(CO)CC[C@]3(C)[C@H](CC[C@@H]4[C@@]5(C)CCC(N)C(C)(C)[C@@H]5CC[C@]43C)[C@@H]12 (some centres undefined) | 3.31 µM | 3.29 µM | 3.78 µM | 3.52 µM | – | 4.04 µM | 3.7 µM | – | 3.07 µM | 1.85 µM | 1.8 µM | 3.3 µM | 1.86 µM | 1.57 µM | – | 1.85 µM | – | 1.84 µM | 1.55 µM | 1.95 µM |
| O=C(NCCCCCCNC(=O)OCc1ccc2c(Cl)cc(Cl)c(O)c2n1)OCc1ccc2c(Cl)cc(Cl)c(O)c2n1 | 2.55 µM | 3.62 µM | 1.78 µM | – | 5.55 µM | 2.54 µM | 3.06 µM | 6.58 µM | 1.57 µM | 1.55 µM | 1.03 µM | 2.24 µM | 0.57 µM | – | 0.688 µM | 1.42 µM | 0.518 µM | 1.25 µM | 0.478 µM | 1.07 µM |
| Cc1c(CC/C(=N\Nc2ccc([N+](=O)[O-])cc2[N+](=O)[O-])c2ccccc2)c2ccccc2n1C | > 100 µM | > 100 µM | > 100 µM | – | > 64.8 µM | > 100 µM | > 100 µM | – | > 83.6 µM | – | – | – | – | – | – | – | – | – | – | – |
| Nc1nc(-c2cccs2)cs1 | > 100 µM | > 100 µM | > 100 µM | > 100 µM | – | – | > 100 µM | > 100 µM | > 100 µM | – | – | > 100 µM | – | – | – | – | – | – | – | – |
| O=C(Cc1ccccc1)NS(=O)(=O)c1ccccc1 | > 100 µM | > 100 µM | > 100 µM | – | > 100 µM | > 100 µM | > 100 µM | – | > 100 µM | – | – | – | – | – | – | – | – | – | – | – |
| CC1=CC(=O)c2ccc(C)cc2C1=O | 34.4 µM | 36.9 µM | 30.8 µM | 11.3 µM | 6.24 µM | 39.5 µM | 23.9 µM | > 100 µM | – | – | – | 35.7 µM | – | – | – | – | – | – | – | – |
| COC(C)(C)[C@H](O)C(O)CC(C)[C@@H]1CCC23CC12CCC1[C@@]2(C)CCC(OC(C)=O)C(C)(C)C2CC(OC2OC(COC(C)=O)C(O)C(O)C2O)[C@]13C (some centres undefined) | 18.7 µM and 34.7 µM | 10.1 µM and 13.8 µM | 8.11 µM and 15 µM | – | 26.7 µM and 15.8 µM | 16.9 µM | 16 µM and 25.2 µM | – | 11.8 µM | 3.67 µM | – | – | 3.59 µM | – | 0.00625 µM | 11.3 µM | – | 17 µM | – | – |
| C=C1C(=O)O[C@H]2[C@H]1CC/C(COC(=O)NCc1cc(OC)cc(OC)c1)=C\CC[C@@]1(C)O[C@@H]21 | 5.8 µM | 7.47 µM | 7.66 µM | – | 5.55 µM | 5.49 µM | 4.32 µM | 10.2 µM | 2.07 µM | 2.58 µM | 0.724 µM | 2.03 µM | 2.12 µM | – | 2 µM | 1.84 µM | 2.98 µM | 2.11 µM | 0.687 µM | 2.02 µM |
| COc1cc2c3c(n(CCCN4CCCC(O)C4)c(=O)c2cc1OC)-c1cc2c(cc1C3=O)OCO2 (centres undefined) | 25.1 µM | 1.51 µM | 8.87 µM | 1.31 µM | 0.678 µM | 4.31 µM | 0.775 µM | 1.06 µM | – | 0.642 µM | < 0.005 µM | 0.592 µM | 0.836 µM | 0.0107 µM | < 0.005 µM | 0.0421 µM | 0.0503 µM | 7.73 µM | – | 1.42 µM |

— PubChem BioAssay (NCI)
